Values quoted from earlier work in patent US20230114993A1 (priority 2019, published 2023).

System: CADASIL
Conditions: compared to placebo, CADASIL patients

COc1cc2c(cc1OC)C(=O)C(CC1CCN(Cc3ccccc3)CC1)C2 (stereo not shown) [donepezil]
Treatment effect in cognitive and executive function assessments: failed to show any treatment effect
